Literature values as cited in US11166956B2, “Combinations of PDE1 inhibitors and NEP inhibitors” (INTRA-CELLULAR THERAPIES, INC., priority 2014, dated 2021).

Key:
[1] = biological target: NEP (Homo sapiens, UniProt P08473)
[2] = tested on: PDE1
[3] = tested on: NEP and ACE; conditions: clinical studies

Chain of NEP (P08473 whole entry): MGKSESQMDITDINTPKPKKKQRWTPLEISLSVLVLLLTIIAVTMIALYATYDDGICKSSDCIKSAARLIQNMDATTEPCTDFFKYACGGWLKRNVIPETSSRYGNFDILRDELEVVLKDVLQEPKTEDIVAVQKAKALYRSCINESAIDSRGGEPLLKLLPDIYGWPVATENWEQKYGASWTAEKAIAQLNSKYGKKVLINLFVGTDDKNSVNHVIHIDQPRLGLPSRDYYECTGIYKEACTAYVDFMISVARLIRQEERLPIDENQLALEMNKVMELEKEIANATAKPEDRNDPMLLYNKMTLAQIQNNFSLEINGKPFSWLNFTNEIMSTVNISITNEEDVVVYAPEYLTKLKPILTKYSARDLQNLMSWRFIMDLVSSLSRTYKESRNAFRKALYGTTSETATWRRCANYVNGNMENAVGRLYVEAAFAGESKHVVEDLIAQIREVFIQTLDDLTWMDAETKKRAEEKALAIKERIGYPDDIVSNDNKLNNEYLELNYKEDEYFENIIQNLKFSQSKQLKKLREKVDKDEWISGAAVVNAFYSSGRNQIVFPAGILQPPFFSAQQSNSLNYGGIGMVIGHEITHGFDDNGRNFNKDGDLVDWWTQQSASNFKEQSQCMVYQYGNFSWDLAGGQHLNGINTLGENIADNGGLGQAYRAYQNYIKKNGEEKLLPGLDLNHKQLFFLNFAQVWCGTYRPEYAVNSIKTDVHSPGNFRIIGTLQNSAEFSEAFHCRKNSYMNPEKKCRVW

In the case of `COCCOC[C@H](CC1(C(=O)N[C@H]2CC[C@@H](C(=O)O)CC2)CCCC1)C(=O)Oc1ccc2c(c1)CCC2` [Candoxatril], the blood-pressure lowering effect ([1]; in vivo) is given as “does not produce a stable blood-pressure lowering effect”, the “plasma ANP and cGMP levels” value ([1]; in vivo) is given as “dose-dependent increase” and the levels of endothelin ([1]; patients with heart failure) is given as “increase levels of endothelin significantly”.

For `COc1cc2c(c(O)c1OC)C(=O)C[C@@H](c1cc(O)ccc1O)O2` [dioclein], the vasodilation [2] is given as “induce PKG-dependent vasodilation”.

For `O=C(N[C@H]1CCS[C@H]2CCC[C@@H](C(=O)O)N2C1=O)[C@@H](S)Cc1ccccc1` [omapatrilat], the incidence of angioedema [3] is given as “severe incidence of angioedema”.
